# In patent US20090156551A1, “NOVEL COMPOSITION” (priority 2007, published 2009):
# Where two headings read alike, the source gives them in different places.
# Key:
# [1] = tested on: Inflammatory mediator NO; assay: Inhibition of nitric oxide synthesis in LPS-stimulated RAW264.7 macrophages (Griess reaction); assay type: cell-based, murine; conditions: for IC50: Mus musculus; for anti-inflammatory activity (in words): NO inhibition
# Description: The anti-inflammatory effects were determined in cellular assays by measuring the inhibition of the synthesis of nitric oxide and/or pro-inflammatory prostaglandins (PGE2). PGE2 plays a critical role in the inflammation process, while nitric oxide (NO) is a hallmark of inflammation in various chronic inflammatory diseases including various forms of arthritis, gastro-intestinal diseases and metabolic syndrome X. The effects on the inflammatory response were tested in cellular assays using a murine macrophage cell line, RAW264.7. The cells were purchased from ATCC (Manassas, Va., USA) and cultured in DMEM containing streptomycin/penicillin, non-essential amino acids and 10% fetal calf serum (FCS). In order to test a large range of concentration of MA and HO as well as mixtures thereof, cells (˜50'000/well) were seeded into flat-bottomed microtiter plates and cultured for one day. Cells were then starved in complete medium containing 0.25% FCS (D-025). After overnight culture, medium was removed and replaced by 100 μL of D-025 containing the test compounds at twice the final concentration. Subsequently, 100 μL of D-025 containing 2 μg/ml LPS was added (i.e. final LPS concentration of 1 μg/ml) and the cells cultured for 24 hours. Substances were usually tested in a concentration range from 0.2 to 50 μM in two-fold dilution steps. All treatments were done in duplicates and several experimental series were done for each treatment. Concentrations of nitrite which was rapidly formed from nitric oxide released by cells were determined by the Griess reaction using sodium nitrite as standard. Briefly, 50 μl of supernatant was mixed with Griess reagent 1 (25 μL) and Griess reagent 2 (25 μL), centrifuged and the optical density at 540 nm determined. PGE2 secreted into the cell culture medium was determined by EIA obtained from Cayman Chemicals (Ann Harbor, Wis., USA) and used according to the manufacturer's instructions. All determinations were done in duplicates and at various dilutions of the culture supernatant. IC50 values for LPS-stimulated cells were calculated using a […] least-square fitting equation [y=A+((B−A)/(1+((C−x)̂D))] for best-fit curves (Excel fit software program).
# In order to determine the synergistic concentration range of MA to HO, various mixtures thereof were tested for their anti-inflammatory by measuring the inhibition of the synthesis of nitric oxide (NO) as outlined above.
# The synergistic effect of a combination of a mixture of MA/HO (1:3 w/w) with glucosamine sulfate (ratio MA/HO (1:3 w/w) to glucosamine sulfate: 50 μmol/L to 50 μmol/L) or chondroitin sulfate (ratio MA/HO (1:3 w/w) to chondroitin sulfate: 13.3 mg/L (i.e. 50 μmol/L) to 500 mg/L) on the inhibition of the inflammatory mediator nitric oxide (NO) has been evaluated based on the method published by Chou and Talalay (A simple generalized equation for the analysis of multiple inhibitions of Michealis-Menten kinetic systems. J. Biol. Chem. 1977. 252: 6438-6442).
# [2] = tested on: Collagen I; assay: Gene expression in normal human chondrocytes, RT-PCR; assay type: cell-based; conditions: for Expression level (%) Collagen I: at 12.5 μmol/L, 4 hours, % of unstimulated cells (100%)
# [3] = tested on: Aggrecan; assay: as above; assay type: cell-based; conditions: 4 hrs
# Description: (§1) The effect of MA and HO, mixtures thereof as well as combinations with glucosamine sulfate and chondroitin sulfate on the expression of human aggrecan, collagen I, collagen II, or chondrocyte transcription factors (SOX-6, -9) was measured in vitro in normal human chondrocytes (derived from knee) (CC-2550; Cambrex, respectively). A control experiment without the compounds was done concomitantly to compare the expression of these genes (percentage expression of gene in controls was set to 100%).
# [4] = tested on: TIMP-1; assay: as above; assay type: cell-based; conditions: for Expression level (%) TIMP-1: at 12.5 μmol/L, 4 hours, % of unstimulated cells (100%)
# Description: [Worded in the source for another target; this target is reported under the same test.] as §1
# [5] = tested on: Collagen II; assay: as above; assay type: cell-based; conditions: 4 hrs; 50 μmol/L
# [6] = tested on: MMP-9; assay: as above; assay type: cell-based; conditions: stim. 4 hrs; 50 μmol/L
# [7] = tested on: ADAMTS-4; assay: as above; assay type: cell-based; conditions: unstim. 4 d; 50 μmol/L
# [8] = tested on: Inflammatory mediator PGE2; assay: Inhibition of PGE2 synthesis in LPS-stimulated RAW264.7 macrophages (EIA); assay type: cell-based, murine; conditions: Mus musculus, read-out: IC50 Observed, inflammatory mediator PGE2
# Description: The anti-inflammatory effects were determined in cellular assays by measuring the inhibition of the synthesis of nitric oxide and/or pro-inflammatory prostaglandins (PGE2). […] The cells were purchased from ATCC (Manassas, Va., USA) and cultured in DMEM containing streptomycin/penicillin, non-essential amino acids and 10% fetal calf serum (FCS). […] Cells were then starved in complete medium containing 0.25% FCS (D-025). After overnight culture, medium was removed and replaced by 100 μL of D-025 containing the test compounds at twice the final concentration. Subsequently, 100 μL of D-025 containing 2 μg/ml LPS was added (i.e. final LPS concentration of 1 μg/ml) and the cells cultured for 24 hours. […] Concentrations of nitrite which was rapidly formed from nitric oxide released by cells were determined by the Griess reaction using sodium nitrite as standard. Briefly, 50 μl of supernatant was mixed with Griess reagent 1 (25 μL) and Griess reagent 2 (25 μL), centrifuged and the optical density at 540 nm determined. PGE2 secreted into the cell culture medium was determined by EIA obtained from Cayman Chemicals (Ann Harbor, Wis., USA) and used according to the manufacturer's instructions. […] IC50 values for LPS-stimulated cells were calculated using a two-parametric least-square fitting equation [y=A+((B−A)/(1+((C−x)̂D))] for best-fit curves (Excel fit software program).
# [9] = tested on: I-κBalpha; assay: Inflammatory gene expression in RAW 264.7 cells, quantitative RT-PCR; assay type: cell-based, murine; conditions: at 12.5 μmol/L, 4 hours; relative to LPS-stimulated cells (100%)
# From the text: (§2) Inflammatory responses are orchestrated by the transient activation of a variety of genes. Their regulation is tightly controlled via signaling pathways and eventually proteins that control the expression of genes such as transcription factors. Consequently, the effect of the compounds (each of them and various ratios of mixtures) has also been evaluated at the level of the expression of genes that are involved in the inflammatory response. These comprise genes of the prostaglandin synthesis pathway (e.g. COX-2), interleukins (e.g. IL1-α, IL-1β, IL-6), cytokines (e.g. TNF-α), inducible nitric oxide synthase (iNOS) and chemokines. RAW 264.7 cells were stimulated in the presence of different concentrations of substances. After 4 hours, RNA was extracted and the expression of genes determined by quantitative RT-PCR as described by Richard, […]. and […]. in Mol Nutr Food Res 2005. 49: 431-442. In table 3, the effect of MA and HO alone as well as of mixtures thereof in the indicated molar ratios on the expression of inflammatory genes or on anti-inflammatory transcription factors (I-κBα) is shown. The level of mRNA was determined by RT-PCR and expressed relative to the level observed in LPS-stimulated cells (i.e. without compounds).
# [10] = tested on: IL-10; assay: as above; assay type: cell-based, murine; conditions: at 12.5 μmol/L, 4 hours; relative to LPS-stimulated cells (100%)
# From the text: as §2
# [11] = tested on: IL-1alpha; assay: as above; assay type: cell-based, murine; conditions: at 12.5 μmol/L, 4 hours; relative to LPS-stimulated cells (100%)
# From the text: as §2
# [12] = tested on: TNF-alpha; assay: as above; assay type: cell-based, murine; conditions: at 12.5 μmol/L, 4 hours; relative to LPS-stimulated cells (100%)
# From the text: as §2
# [13] = tested on: SOX-6; assay: Gene expression in normal human chondrocytes, RT-PCR; assay type: cell-based; conditions: at 12.5 μmol/L, 4 hours; % of unstimulated cells (100%)
# [14] = tested on: SOX-9; assay: as above; assay type: cell-based; conditions: for Expression level (%) SOX-9: at 12.5 μmol/L, 4 hours, % of unstimulated cells (100%)
# Description: as §1
# [15] = tested on: IL-RI Receptor for Il-1; assay: as above; assay type: cell-based; conditions: at 12.5 μmol/L, 4 hours; control set at 100%
# [16] = tested on: normal human chondrocytes; assay: Effects on chondrocytes (cartilage build-up), overall gene expression; assay type: cell-based; conditions: 12.5 μmol/L, un- (non-IL1 beta-) stimulated cells
# Description: as §1
# In table 2.1 the effect of MA and HO alone as well as of mixtures thereof in the indicated molar ratios on the expression of genes that are involved in cartilage build-up is shown.
# [17] = tested on: ADAMTS-5; assay: Gene expression in normal human chondrocytes, RT-PCR; assay type: cell-based; conditions: stim. 4 hrs; 500 mg/L; % of IL1β-treated cells
# Description: [Worded in the source for another target; this target is reported under the same test.] as §1
# [18] = tested on: MMP-2; assay: as above; assay type: cell-based; conditions: 4 d; 500 mg/L; % of IL1β-treated cells
# [19] = LPS 1 μg/ml, 24 hours, RAW264.7, read-out: IC50 Observed, inflammatory mediator NO
Compound,anti-inflammatory activity (in words) ([1]; single substance),"IC50 [1, 19]",Expression level (%) I-κBalpha [9],Expression level (%) IL-10 [10],Expression level (%) IL-1alpha [11],Expression level (%) TNF-alpha [12],Expression level (%) Collagen I [2],Expression level (%) SOX-6 [13],Expression level (%) SOX-9 [14],Expression level (%) TIMP-1 [4],Expression level (%) IL-RI (Receptor for Il-1) [15],cartilage build-up effect (in words) [16],other results
"N[C@H]1C(O)O[C@H](CO)[C@@H](O)[C@@H]1O.O=S(=O)(O)O (stereo partly drawn) [Glucosamine sulfate, glucosamine sulfate]",marginal anti-inflammatory,,,,,,,,,,,,"IC50 ([1]; single substance, LPS-stimulated RAW264.7, read-out: IC50 Nitric Oxide): > 100 µM; level of gene expression Collagen 1 ([2]; 4 hrs, 50 μmol/L): 121%; level of gene expression Aggrecan ([3]; 50 μmol/L): 81%; level of gene expression TIMP-1 ([4]; 4 hrs, 50 μmol/L): 110%; level of gene expression Collagen II [5]: 154%; level of gene expression MMP-9 [6]: 114%; level of gene expression ADAMTS-4 [7]: 101%"
"C=CCc1ccc(O)c(-c2ccc(O)c(CC=C)c2)c1 [HO, 3′,5-Diallyl-2,4′-biphenyldiol]",,4.58 µM,96%,94%,68%,81%,100%,130%,124%,106%,89%,favors cartilage build-up,"IC50 ([8]; LPS 1 μg/ml, 24 hours, RAW264.7): 2.05 µM"
"C=CCc1ccc(O)c(-c2cc(CC=C)ccc2O)c1 [MA, 5,5′-Diallyl-2,2′-biphenyldiol]",,8.91 µM,99%,136%,70%,96%,78%,94%,110%,96%,98%,to lesser extent,"IC50 ([8]; RAW264.7, 24 h): 5.09 µM"
Chondroitin sulfate,marginal anti-inflammatory,,,,,,,,,,,,"IC50 Nitric Oxide ([1]; single substance, LPS-stimulated RAW264.7): >50 mg/L; level of gene expression ADAMTS-5 [17]: 107%; level of gene expression Aggrecan ([3]; stim., 500 mg/L): 62%; level of gene expression SOX-9 ([14]; 500 mg/L, % of unstimulated cells): 147%; level of gene expression TIMP-1 ([4]; unstim., 4 d, 500 mg/L): 106%; level of gene expression MMP-2 [18]: 93%"
